Source: PMC6916368, “Cell‐Based Optimization of Covalent Reversible Ketoamide Inhibitors Bridging the Unprimed to the Primed Site of the Proteasome β5 Subunit” (Chemmedchem, 2019)

How the values were obtained:
[1] = target: T1, β1c subunit of isolated human 20S proteasome (Homo sapiens, UniProt P28072); test: Proteasome inhibition assay (20 S Proteasome Assay Kit, Z‐LLE‐AMC); assay type: biochemical; conditions: c = 1 µM, n=1; read-out: Inhibition cCP β1
T1 construct: purchased Enzo Life Sciences
Procedure: (§1) Proteasome inhibition assay. […] The 20 S Proteasome Assay Kit for Drug Discovery was used according to the supplier's protocol using Suc‐LLVY‐AMC (β5), Bz‐VGR‐AMC (β2) or Z‐LLE‐AMC (β1) as substrates (Enzo Life Sciences). Single point measurements of residual activity of proteasome activity were performed at a final concentration of 100 nM (n=3, β5c, β5i) or 1 μM (n=1, β1c, β2c, β5c, β5i, SI chapter 2a, Table S1). […] Inhibitors were prepared in 2‐fold concentration (cfinal=100 nM) and added to proteasomes (mfinal=200 ng/well). After 30 min incubation, substrate was added (cfinal=100 μM), incubated for 60 minutes and fluorescence was read using a Tecan M1000 microplate reader. […] IC50 values were determined from technical duplicates as mean value of three independent experiments.

[2] = target: T2, β5i subunit of isolated human 20S proteasome (Homo sapiens, UniProt P28062); test: Proteasome inhibition assay (20 S Proteasome Assay Kit, Suc‐LLVY‐AMC); assay type: biochemical; conditions: for inhibition at 1 µM: c = 1 µM, n=1, read-out: Inhibition iCP β5; for inhibition at 0.1 µM: c=100 nM, read-out: Rel. Inhibition β5i
T2 construct: purchased Enzo Life Sciences
Procedure: as §1

[3] = target: T3, β5c subunit of isolated human 20S proteasome (Homo sapiens, UniProt P28074); test: as above; assay type: biochemical; conditions: for inhibition at 1 µM: c = 1 µM, n=1, read-out: Inhibition cCP β5; for inhibition at 0.1 µM: c=100 nM, read-out: Rel. Inhibition β5c
T3 construct: purchased Enzo Life Sciences
Procedure: as §1

[4] = target: T4, β2c subunit of isolated human 20S proteasome (Homo sapiens, UniProt Q99436); test: Proteasome inhibition assay (20 S Proteasome Assay Kit, Bz‐VGR‐AMC); assay type: biochemical; conditions: c = 1 µM, n=1; read-out: Inhibition cCP β2
T4 construct: purchased Enzo Life Sciences
Procedure: Proteasome inhibition assay. Bortezomib (Selleckchem) and carfilzomib (MedChemExpress) were purchased and used without further purification. The 20 S Proteasome Assay Kit for Drug Discovery was used according to the supplier's protocol using Suc‐LLVY‐AMC (β5), Bz‐VGR‐AMC (β2) or Z‐LLE‐AMC (β1) as substrates (Enzo Life Sciences). Single point measurements of residual activity of proteasome activity were performed at a final concentration of 100 nM (n=3, β5c, β5i) or 1 μM (n=1, β1c, β2c, β5c, β5i, SI chapter 2a, Table S1). […] Inhibitors were prepared in 2‐fold concentration (cfinal=100 nM) and added to proteasomes (mfinal=200 ng/well). After 30 min incubation, substrate was added (cfinal=100 μM), incubated for 60 minutes and fluorescence was read using a Tecan M1000 microplate reader. Dose‐response curves were fitted to the equation Y=100/(1+10^((L°^gIC50−X)*HillSl°^pe)) using GraphPad Prism 7.02. IC50 values were determined from technical duplicates as mean value of three independent experiments.

[5] = test system: MV4‐11 cells; test: Cell viability endpoint assay (Celltiter Blue, 72 h); assay type: cell-based; conditions: for IC50: Homo sapiens, MV4-11, mean±SD from two independent experiments
Procedure: Cell lines. MV4‐11 (ACC 102), Jurkat (ACC 282) and THP‐1 (ACC 16) cells were obtained from DSMZ and maintained at 37 °C and 5 % CO2 at densities between 0.2–1×10^6 cells per mL in RMPI‐1640 medium supplemented with 10 % FBS, L‐glutamine (2 mM) and penicillin/streptomycin.
Cell viability endpoint assay. For the determination of cytotoxicity of proteasome inhibitors 50.000 cells per well were plated in 90 μl RPMI‐1640 medium supplemented with 0.1 % FBS and incubated overnight at 37 °C and 5 % CO2. Inhibitors were serially diluted in RPMI‐1640 medium as 10‐fold stocks and added to cells giving the final concentration (1 nM to 10 μM, Figure S2–S4) and incubated for 72 h at 37 °C and 5 % CO2. Cell viability was determined using the Celltiter Blue assay (Promega) by adding 20 μl of reagent, incubation for 120 minutes at 37 °C and 5 % CO2 and fluorescent read‐out using a Tecan M1000 microplate reader. Dose‐response curves were fitted to the equation “Y=Bottom+(Top‐Bottom)/(1+10^(X−L°^gIC50))” using GraphPad Prism 7.02. IC50 values are determined from technical triplicates as mean value of two independent experiments. Standard deviations (Table S1) as well as dose response curves (SI chapter 2b) are given in the supplementary information.

Compound	inhibition at 1 µM [1] [%]	inhibition at 1 µM [2] [%]	inhibition at 0.1 µM [2] [%]	inhibition at 1 µM [3] [%]	inhibition at 0.1 µM [3] [%]	inhibition at 1 µM [4] [%]	IC50 [5] [nM]	IC50 MV4‐11 ([5]; mean±SD from two independent experiments)
CC(C)C[C@H](NC(=O)OCc1ccccc1)C(=O)N[C@@H](CC(=O)OC(C)(C)C)C(=O)N[C@@H](CC(C)C)C(=O)C(=O)Nc1cccc(Oc2ccccc2)c1 [Compound 19, tert ‐Butyl‐(S)‐3‐((S)‐2‐(((benzyloxy)carbonyl)amino)‐4‐methylpentanamido)‐4‐(((S)‐5‐methyl‐1,2‐dioxo‐1‐((3‐phenoxyphenyl)amino)hexan‐3‐yl)amino)‐4‐oxobutanoate]	-15	31	43	84	53	9	36 ± 5	–
CC(C)C[C@H](NC(=O)OCc1ccccc1)C(=O)N[C@@H](CC(=O)OC(C)(C)C)C(=O)N[C@@H](CC(C)C)C(=O)C(=O)Nc1ccc(Oc2ccccc2)cc1 [Compound 20, tert ‐Butyl‐(S)‐3‐((S)‐2‐(((benzyloxy)carbonyl)amino)‐4‐methylpentanamido)‐4‐(((S)‐5‐methyl‐1,2‐dioxo‐1‐((4‐phenoxyphenyl)amino)hexan‐3‐yl)amino)‐4‐oxobutanoate]	-24	22	40	38	41	-7	68 ± 9	–
Cc1cc(C)c(Oc2ccccc2)cc1NC(=O)C(=O)[C@H](CC(C)C)NC(=O)[C@H](CC(=O)OC(C)(C)C)NC(=O)[C@H](CC(C)C)NC(=O)OCc1ccccc1 [Compound 21, tert ‐Butyl(S)‐3‐((S)‐2‐(((benzyloxy)carbonyl)amino)‐4‐methylpentanamido)‐4‐(((S)‐1‐((2,4‐dime‐thyl‐5‐phenoxyphenyl)amino)‐5‐methyl‐1,2‐dioxohexan‐3‐yl)amino)‐4‐oxobutanoate]	-4	17	–	52	33	11	297 ± 27	–
Cc1ccc(NC(=O)C(=O)[C@H](CC(C)C)NC(=O)[C@H](CC(=O)OC(C)(C)C)NC(=O)[C@H](CC(C)C)NC(=O)c2cc(Cl)ccc2Cl)c(C)c1 [Compound 28, tert ‐Butyl (S)‐3‐((S)‐2‐(2,5‐dichlorobenzamido)‐4‐methylpentanamido)‐4‐(((S)‐1‐((2,4‐dimethyl‐phenyl)amino)‐5‐methyl‐1,2‐dioxohexan‐3‐yl)amino)‐4‐oxobutanoate]	-10	52	35	81	26	6	47 ± 5	–
Cc1cc(C)c(Oc2ccccc2)cc1NC(=O)C(=O)[C@H](CC(C)C)NC(=O)[C@H](CC(=O)OC(C)(C)C)NC(=O)[C@H](CC(C)C)NC(=O)c1cc(Cl)ccc1Cl [Compound 29, tert ‐Butyl (S)‐3‐((S)‐2‐(2,5‐dichlorobenzamido)‐4‐methylpentanamido)‐4‐(((S)‐1‐((2,4‐dimethyl‐5‐phenoxyphenyl)amino)‐5‐methyl‐1,2‐dioxohexan‐3‐yl)amino)‐4‐oxobuta‐noate]	-19	-1	8	53	26	-4	58 ± 10	–

The remaining lines, values ahead:

inhibition at 1 µM [1] [%]	inhibition at 1 µM [2] [%]	inhibition at 0.1 µM [2] [%]	inhibition at 1 µM [3] [%]	inhibition at 0.1 µM [3] [%]	inhibition at 1 µM [4] [%]	IC50 [5] [nM]	IC50 MV4‐11 ([5]; mean±SD from two independent experiments)	Compound
28	28	11	43	6	-10	> 1000	inactive	CC(C)C[C@@H](C=O)NC(=O)[C@H](CC(C)C)NC(=O)[C@H](CC(C)C)NC(=O)Cn1cnc2ccccc2c1=O [Compound 22, (S)‐4‐Methyl‐N‐((S)‐4‐methyl‐1‐(((S)‐4‐methyl‐1‐oxopentan‐2‐yl)amino)‐1‐oxopentan‐2‐yl)‐2‐(2‐(4‐oxoquinazolin‐3(4H)‐yl)acetamido)pentanamide]
19	64	4	75	30	49	145 ± 23	–	CC(C)C[C@@H](C=O)NC(=O)[C@H](CC(C)C)NC(=O)[C@H](CC(C)C)NC(=O)c1cnccn1 [Compound 23, N ‐((S)‐4‐Methyl‐1‐(((S)‐4‐methyl‐1‐(((S)‐4‐methyl‐1‐oxopentan‐2‐yl)amino)‐1‐oxopentan‐2‐yl)amino)‐1‐oxopentan‐2‐yl)pyrazine‐2‐carboxamide]
13	89	60	94	76	26	16 ± 1	–	CC(C)C[C@@H](C=O)NC(=O)[C@H](CC(C)C)NC(=O)[C@H](CC(C)C)NC(=O)c1cc(Cl)ccc1Cl [Compound 24, 2,5‐Dichloro‐N‐((S)‐4‐methyl‐1‐(((S)‐4‐methyl‐1‐(((S)‐4‐methyl‐1‐oxopentan‐2‐yl)‐amino)‐1‐oxo‐pentan‐2‐yl)amino)‐1‐oxopentan‐2‐yl)benzamide]
9	75	38	90	64	10	28 ± 5	–	CC(C)C[C@@H](C=O)NC(=O)[C@H](CC(=O)OC(C)(C)C)NC(=O)[C@H](CC(C)C)NC(=O)c1cc(Cl)ccc1Cl [Compound 25, tert ‐Butyl (S)‐3‐((S)‐2‐(2,5‐dichlorobenzamido)‐4‐methylpentanamido)‐4‐(((S)‐4‐methyl‐1‐oxopen‐tan‐2‐yl)amino)‐4‐oxobutanoate]
-38	24	4	51	25	17	25 ± 5	–	Cc1ccc(NC(=O)C(=O)[C@H](CC(C)C)NC(=O)[C@H](CC(C)C)NC(=O)[C@H](CC(C)C)NC(=O)c2cc(Cl)ccc2Cl)c(C)c1 [Compound 26, 2,5‐Dichloro‐N‐((S)‐1‐(((S)‐1‐(((S)‐1‐((2,4‐dimethylphenyl)amino)‐5‐methyl‐1,2‐dioxohexan‐3‐yl)amino)‐4‐methyl‐1‐oxopentan‐2‐yl)amino)‐4‐methyl‐1‐oxopentan‐2‐yl)‐benzamide]
